Data on 78 molecules can be found in the METLIN SMRT retention time set (Domingo-Almenara et al. 2019).

The nature of this series: gradient 5% acetonitrile 3 min, to 50% in 2 min, to 85% in 15 min, held 3 min, 100 µL/min. The note with it: column: Zorbax Extend-C18 2.1 x 50 mm; eluents: water / acetonitrile, 0.1% formic acid. In short, it runs like this: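 Standards, all pure, were combined into mixtures of ~100 molecules and run at 100 μL/min on a Zorbax Extend-C18 column (2.1 × 50 mm, 1.8 μm) with water and acetonitrile, each containing 0.1% formic acid. A coupled quadrupole time-of-flight mass spectrometer operated in positive and negative ionization mode. Retention time values come from computationally picked adduct peaks, each inspected manually.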
As to `O=C(NCc1ccccn1)c1cccc2c1CCN2C(=O)c1ccc(F)cc1`, the RP-LC retention time amounted to 644 s.

For `COc1ccccc1-c1nnc(-c2ccc(Cl)c(S(=O)(=O)N3CCC(C)CC3)c2)o1`, the RP-LC retention time was determined as 1190 s.

`CCOC(=O)C1CCN(C(=O)C2CCCN(c3cnc4nc(C)c(C)nc4c3)C2)CC1` (stereo not drawn) displayed an RP-LC retention time of 689 s.

Molecule `CCN1c2cc(C(=O)NCCC3=CCCCC3)ccc2C(=O)N2CCCCC21` (stereo not drawn) returned an RP-LC retention time of 959 s.

As to `Cc1ccc(-c2ccc3nn(CC(=O)Nc4ccc(C)cc4Br)c(=O)n3n2)cc1`, the RP-LC retention time was 960 s.

In turn, `O=S(=O)(c1ccc(-c2nnc(C3CCCC3)o2)o1)N1CCN(c2ccccn2)CC1` displayed an RP-LC retention time of 726 s.

In the case of `CCc1noc(NC(C)=O)c1-c1ccc(OC)c(S(=O)(=O)Nc2ccc(F)cc2F)c1`, the RP-LC retention time worked out at 794 s.

The molecule `CCc1cccc(C)c1NC(=O)CN1C(=O)NC2(CCCCC2)C1=O` came in with an RP-LC retention time of 804 s.

`CCOC(=O)c1ccccc1NC(=O)CSc1ccc(N2CCCC(C(=O)NC3CC3)C2)nn1` (stereo not drawn) returned an RP-LC retention time of 680 s.

With `O=C(NCC1(N2CCOCC2)CCOC1)Nc1ccc2c(c1)OCCO2` (stereo not drawn), the RP-LC retention time is 589 s.

For the molecule `CC(=O)N1CCc2cc(CNS(=O)(=O)Cc3ccccc3)ccc21`, the RP-LC retention time was 750 s.

`CCCCNC(=O)Cn1c2ccccc2c2ncn(Cc3nc(-c4ccccc4)no3)c(=O)c21`: the RP-LC retention time came out at 910 s.

As to `CCOc1cc(=O)n2c(c1C(=O)NCCCOC(C)C)CCCCC2`, the RP-LC retention time worked out at 646 s.

The molecule `CCCS(=O)(=O)c1nc2ccc(NS(=O)(=O)c3ccc4c(c3)oc(=O)n4C)cc2s1` came in with an RP-LC retention time of 847 s.

In turn, `Cc1nc2cc(-c3noc(-c4ccc(Cl)cc4Cl)n3)ccc2o1` gave an RP-LC retention time of 1250 s.

`Cc1ccc(C)c(CNC(=O)c2ccc(-c3nc4cccnc4n3C3CCCCC3)cc2)c1` showed an RP-LC retention time of 1120 s.

In the case of `Cc1ccc(S(=O)(=O)C2=C(O)C(=O)N(Cc3ccco3)C2c2ccc(Cl)cc2)cc1` (stereo not drawn), the RP-LC retention time turned out to be 982 s.

`CCc1noc(NC(C)=O)c1-c1ccc(C)c(S(=O)(=O)Nc2ccc(OC)cc2OC)c1` had an RP-LC retention time of 794 s.

On to `O=C(COc1ccccc1)N1CCN(C(=O)c2nnn3c2COC(c2ccc(Cl)cc2)C3)CC1` (stereo not drawn), for which the RP-LC retention time was determined as 922 s.

Turning to `COc1cc2c(cc1OC)C(COc1cccc(C(F)(F)F)c1)NCC2` (stereo not drawn), the RP-LC retention time was determined as 586 s.

Consider `COCCNC(=O)C1COc2ccc(NC(=O)c3ccc(Br)cc3)cc2C1` (stereo not drawn), for which the RP-LC retention time was 774 s.

On to `Cc1ccc(-c2cc(C(=O)N3CCC(NC(=O)C4CCCCC4)CC3)[nH]n2)c(C)c1`, for which the RP-LC retention time was determined as 811 s.

`CN(C)[C@@H]1CN(Cc2ccc(F)c(F)c2)CC[C@@H]1CO` yielded an RP-LC retention time of 434 s.

In the case of `Cc1ccc(NC(=O)C2CCN(S(=O)(=O)c3cn(C(C)C)cn3)CC2)cc1F`, the RP-LC retention time was found to be 823 s.

`COc1cc(C(C)=O)ccc1OCC(=O)NCCn1cnc(-c2ccc(F)cc2)cc1=O`: the RP-LC retention time was 661 s.

In turn, `C=CCN1C(=O)COc2ccc(-c3csc(NC(=O)c4ccc(Br)cc4)n3)cc21` had an RP-LC retention time of 1120 s.

`CCOC(=O)C1=C(C)NC(=O)NC1c1cn(-c2ccccc2)nc1-c1ccc(OC)cc1` (stereo not drawn): the RP-LC retention time came out at 842 s.

With `O=C(Nc1ccc(Cl)cc1)c1cnc(-c2ccc(F)cc2)nc1-c1ccncc1`, the RP-LC retention time was 986 s.

`O=S(=O)(c1cccs1)N1CCN(c2nc3c(F)cc(F)cc3s2)CC1` gave an RP-LC retention time of 997 s.

On to `CC(C)c1cc(C(=O)Nc2ccc(F)c(F)c2)no1`, for which the RP-LC retention time turned out to be 1040 s.

In turn, `CCOC(=O)c1sc(NCCc2c[nH]c3ccc(OC)cc23)nc1-c1ccccc1` came in with an RP-LC retention time of 1040 s.

The molecule `CSc1nnc(-c2nn(C)c3c2CN(C(=O)c2ccccc2)CC3)n1C` registered an RP-LC retention time of 680 s.

For the molecule `Cc1ccc(Oc2nccn3c(=O)n(CC(=O)Nc4ccc(C)c(Cl)c4)nc23)cc1`, the RP-LC retention time is 1010 s.

The molecule `Cc1cnc(C(=O)N2CC(c3nc(CCOCC4CC4)no3)C2)cn1` had an RP-LC retention time of 706 s.

In the case of `CCOc1ccc(-c2noc(Cn3c(=O)n(C(C)CC)c(=O)c4ccccc43)n2)cc1` (stereo not drawn), the RP-LC retention time amounted to 1170 s.

Turning to `Cc1ccc(S(=O)(=O)n2ccn(C(=O)C(C)Oc3ccccc3)c2=O)cc1` (stereo not drawn), the RP-LC retention time was 712 s.

Take `Cc1noc(C)c1S(=O)(=O)N1CCC2(CC1)CC(Cc1ccc(F)cc1)CCO2` (stereo not drawn): the RP-LC retention time was 1150 s.

Molecule `CCCc1noc(-c2ccnc(-n3ncc(C(=O)NC4CCCC4)c3C)c2)n1` registered an RP-LC retention time of 640 s.

`Cc1noc(C)c1CC(=O)N1CCCn2ccnc2C1C(C)C` (stereo not drawn): the RP-LC retention time was 632 s.

For `O=C(NCC1CCCO1)C1CCN(C(=O)C2Sc3ccccc3NC2=O)CC1` (stereo not drawn), the RP-LC retention time was found to be 642 s.

Take `CC(C)n1c(=O)oc2cc(-c3noc(CNC(=O)Cc4ccc(Cl)cc4)n3)ccc21`: the RP-LC retention time is 911 s.

Regarding `CN1C(=O)c2cc(S(=O)(=O)NCc3ccccc3)ccc2Oc2cccnc21`, the RP-LC retention time turned out to be 959 s.

The molecule `COC(=O)c1cccc(NC(=O)c2cnc(-c3ccc(F)cc3)nc2-c2ccncc2)c1` gave an RP-LC retention time of 912 s.

For `CNC(=O)C1CN(C(=O)c2ccccc2C(F)(F)F)CC12CCCC2` (stereo not drawn), the RP-LC retention time came out at 609 s.

Turning to `CCC(C(=O)Nc1cccc(C)c1)n1cnc2nc3c(cc2c1=O)CCCC3` (stereo not drawn), the RP-LC retention time was determined as 834 s.

Turning to `CC(=O)NCc1csc(C2CCN(C(=O)COc3ccc(Cl)cc3)CC2)n1`, the RP-LC retention time was 708 s.

`O=C(Nc1ccc2c(c1)N(S(=O)(=O)c1ccc(F)cc1)CCC2)C1CC1`: the RP-LC retention time was 852 s.

In turn, `O=C(c1cc2c(=O)n(Cc3ccccc3)ccc2s1)N1CCOCC1` returned an RP-LC retention time of 716 s.

The molecule `Cc1nnc(-c2cccn2CC(=O)NCc2cccc(Br)c2)o1` registered an RP-LC retention time of 767 s.

Molecule `O=C(CCc1ccc2cc[nH]c2c1)N1CCN(c2ccc(Cl)cc2)CC1` displayed an RP-LC retention time of 996 s.

`NC1=NC(c2ccc(Cl)cc2)N(c2ccc(S(N)(=O)=O)cc2)C(N)=N1` (stereo not drawn) showed an RP-LC retention time of 629 s.

`COCCN1C(=O)CCc2cc(NC(=O)CCc3ccccc3)ccc21`: the RP-LC retention time is 761 s.

As to `CCc1nc(-c2csc(S(=O)(=O)N3CCCC(C(=O)Nc4ccc(C)cn4)C3)c2)no1` (stereo not drawn), the RP-LC retention time amounted to 831 s.

The molecule `Cc1nc(CC(=O)NCc2ccc(F)cc2F)sc1C(=O)NC1CC1` registered an RP-LC retention time of 693 s.

`O=C(c1ccc(C(F)(F)F)s1)N1CCN(c2nnc3ccccn23)CC1` showed an RP-LC retention time of 711 s.

As for `CCC(=O)NC(C)c1nc(-c2ccc(Cl)cc2)no1` (stereo not drawn), the RP-LC retention time came to 823 s.

The molecule `CC1CCCN(c2ncc(S(=O)(=O)c3ccc(C(C)C)cc3)c(N)n2)C1` (stereo not drawn) returned an RP-LC retention time of 807 s.

`Cc1nc2nc(-c3ccc(C(C)(C)C)cc3)nn2c(C)c1CC(=O)N1CCCC1` came in with an RP-LC retention time of 900 s.

`CC1CCCCN1CCNC(=O)c1c2c(cn(-c3ccc(F)cc3)c1=O)C(=O)CC(C)(C)C2` (stereo not drawn) registered an RP-LC retention time of 675 s.

Turning to `COCCCNC(=O)c1ccc2c(c1)nc1n2CCCCC1`, the RP-LC retention time is 566 s.

In turn, `CCn1cc(-c2nc(CC(=O)Nc3ccc(OC)cc3)cs2)c2cccnc21` registered an RP-LC retention time of 858 s.

`COC(=O)c1ccc(CSc2nnc(NC(=O)c3snnc3C)s2)o1` came in with an RP-LC retention time of 743 s.

On to `Cc1cc(C)c(S(=O)(=O)N2CCCC2c2nc(-c3ccc(F)cc3)no2)c(C)c1` (stereo not drawn), for which the RP-LC retention time was determined as 1270 s.

The molecule `CCc1onc(C)c1C1CCCN1C(=O)Nc1ccc(C(=O)OC)cc1` (stereo not drawn) returned an RP-LC retention time of 806 s.

As for `COCc1nnc(C(=O)Nc2ccc(C(=O)NCCc3c[nH]c4ccc(C)cc34)cc2)s1`, the RP-LC retention time amounted to 844 s.

`CCc1cccc(C)c1Nc1c(-c2ccc(O)c(OC)c2)nc2nc(C)cc(C)n12` had an RP-LC retention time of 710 s.

For `COC(=O)c1cccc(N2C=C(C#N)S(=O)(=O)c3ccc(F)cc32)c1`, the RP-LC retention time was 860 s.

`Cc1nnc(C2CCCN(C(=O)c3ccc(S(=O)(=O)N(C)C)cc3)C2)s1` (stereo not drawn) registered an RP-LC retention time of 642 s.

In the case of `COC(=O)c1ccccc1Nc1c(-c2ccc(OC)c(OC)c2)nc2cnccn12`, the RP-LC retention time turned out to be 732 s.

`Cc1ccc2nc(-c3cccnc3)cc(C(=O)Nc3nc(-c4ccccc4)c(C)s3)c2c1`: the RP-LC retention time turned out to be 1070 s.

`CC(C)CN1CCN(C(=O)c2nc(-c3ccnc(N4CCCCC4)c3)no2)CC1` gave an RP-LC retention time of 588 s.

`C=CCn1c(C)c(CC(=O)N2CCCC2)c(=O)n2nc(-c3ccc(C)cc3)nc12` gave an RP-LC retention time of 789 s.

In the case of `Cc1oc(-c2[nH]ncc2C(=O)N2CCCC2)cc1S(=O)(=O)NC1CC1`, the RP-LC retention time worked out at 620 s.

As for `CCc1noc(NC(C)=O)c1-c1ccc(OC)c(S(=O)(=O)Nc2cc(C)cc(C)c2)c1`, the RP-LC retention time is 852 s.

`CCN(CC)CCNC(=O)CCc1c(-c2ccc(Cl)cc2)nc2ccccn12` had an RP-LC retention time of 558 s.

In turn, `COc1ccc(S(=O)(=O)N2CCC(c3noc(-c4ccccc4C)n3)CC2)cc1OC` returned an RP-LC retention time of 1090 s.

For the molecule `CN1C(=O)Cc2cc(C(=O)N3CCN(c4ccccc4F)CC3)ccc21`, the RP-LC retention time is 765 s.

Take `Cc1nc(CSc2nc3cc([N+](=O)[O-])ccc3s2)cs1`: the RP-LC retention time was determined as 916 s.
